Measured values reported in ChEMBL document CHEMBL1150919, “The inhibition of the reverse transcriptase of HIV-1 by the natural sulfoglycolipids from cyanobacteria: contribution of different moieties to their high potency” (J Nat Prod, 1998).

What was measured:
[1] = test system: Human immunodeficiency virus 1; test: Inhibition of HIV1 RNase H activity assessed as residual enzyme activity by poly(rA)n.oligo(dT)12-18-directed incorporation of [3H]dTTP into DNA at 100 uM relative to control
[2] = target: Human immunodeficiency virus type 1 reverse transcriptase (Human immunodeficiency virus 1) (UniProt Q72547); test: (§1) Inhibition of HIV1 reverse transcriptase activity assessed as residual enzyme activity by poly(rA)n.oligo(dT)12-18-directed incorporation of [3H]dTTP into DNA
[3] = target: Human immunodeficiency virus type 1 reverse transcriptase (Human immunodeficiency virus 1, UniProt Q72547); test: as §1
[4] = Inhibition of HIV2 reverse transcriptase-mediated DNA polymerase activity; set-up: species or system Human immunodeficiency virus 2

Row | Compound | Activity [1] [%] | IC90 [2] [µM] | IC50 [3] [µM] | IC50 [4] [µM]
1 | CCCCC/C=C\C/C=C\CCCCCCCC(=O)OC[C@H](CO[C@H]1O[C@H](CS(=O)(=O)O)[C@@H](O)[C@H](OC(=O)CCCCCCCCCCCCCCC)[C@H]1OC(=O)CCCCCCCCCCCCCCC)OC(=O)CCCCCCCCCCCCCCC | 100 | 14 | 2.95 | –
2 | CCCCCCCC/C=C\CCCCCCCC(=O)OC[C@H](CO[C@@H]1O[C@H](CO)[C@H](O)[C@H](O)[C@H]1O)OC(=O)CCCCCCCCCCCCCCC | 100 | > 100 | 65 | –
3 | CCCCCCCCCCCCCCCC(=O)OC[C@H](CO[C@H]1O[C@H](CS(=O)(=O)O)[C@@H](O)[C@H](O)[C@H]1O)OC(=O)CCCCCCCCCCCCCCC | 45 | 0.465 | 0.112 | –
4 | CCCCC/C=C\C/C=C\CCCCCCCC(=O)OC[C@H](CO[C@@H]1O[C@H](CO)[C@H](O)[C@H](O)[C@H]1O)OC(=O)CCCCCCCCCCCCCCC | 100 | > 100 | 38 | –
5 | CCCCC/C=C\C/C=C\CCCCCCCC(=O)OC[C@H](CO[C@@H]1O[C@H](CO[C@H]2O[C@H](CO)[C@H](O)[C@H](OC(=O)CCCCCCCCCCCCCCC)[C@H]2O)[C@H](O)[C@H](O)[C@H]1O)OC(=O)CCCCCCCCCCCCCCC | 100 | > 100 | 99.4 | –
6 | CCCCCCCC/C=C\CCCCCCCC(=O)OC[C@H](CO[C@H]1O[C@H](CS(=O)(=O)O)[C@@H](O)[C@H](O)[C@H]1O)OC(=O)CCCCCCCCCCCCCCC | 66 | 0.076 | 0.024 | 0.034
7 | OC[C@@H](O)CO[C@@H]1O[C@H](CO[C@H]2O[C@H](CO)[C@H](O)[C@H](O)[C@H]2O)[C@H](O)[C@H](O)[C@H]1O | – | – | > 100 | –
8 | CCCCC/C=C\C/C=C\CCCCCCCC(=O)OC[C@H](CO[C@H]1O[C@H](CS(=O)(=O)O)[C@@H](O)[C@H](O)[C@H]1O)OC(=O)CCCCCCCCCCCCCCC | 100 | 0.28 | 0.077 | –
9 | OC[C@@H](O)CO[C@@H]1O[C@H](CO)[C@H](O)[C@H](O)[C@H]1O | – | – | > 100 | –
10 | O=S(=O)(O)C[C@H]1O[C@H](OC[C@H](O)CO)[C@H](O)[C@@H](O)[C@@H]1O | – | > 100 | 75 | –
11 | OC[C@@H](O)CO[C@H]1O[C@H](CO)[C@@H](O)[C@H](O)[C@H]1O | – | – | > 100 | –
12 | CCCCCCCCCCCCCCCC(=O)OC[C@H](CO[C@@H]1O[C@H](CO)[C@H](O)[C@H](O)[C@H]1O)OC(=O)CCCCCCCCCCCCCCC | 100 | > 100 | > 100 | –
